According to patent US8158168B2, “Anti-gastritis and anti-ulcer agent containing Momordicae semen extract and momordica saponin I isolated from the same” (SK Chemicals Co., Ltd., priority 2005, dated 2012):

What was measured:
[1] = test system: stomach damage induced by diclofenac; assay: Protective effect of momordica saponin I against stomach damage induced by diclofenac (Example 5); type: in vivo, Sprague-Dawley rats; details: rat, diclofenac 40 mg/kg oral and at the same time momordica saponin I 20 mg/kg or Mucosta 100 mg/kg oral; observed 4 hours later; points 0 to 3
[2] = test system: stomach damage induced by diclofenac; assay: as above; type: in vivo, Sprague-Dawley rats; details: rat, diclofenac 40 mg/kg oral and at the same time momordica saponin I 20 mg/kg or Mucosta 100 mg/kg oral, observed 4 hours later; for gastric mucosa damage index ± standard deviation: Bleeding / gastric mucosa damage index ± standard deviation: Edema / gastric mucosa damage index ± standard deviation: Flare / gastric mucosa damage index ± standard deviation: Hyperemia: points 0 to 3
Method: Diclofenac and the test drug were administered simultaneously and the damage of gastric mucosa was observed 4 hours later. Diclofenac was dissolved in 0.5% aqueous carboxymethyl cellulose solution to […] and the test drug was prepared as in Example 2.
(§1) Seven-week-old specific pathogen free (SPF) male Sprague-Dawley rats were purchased from Charles River. After 1 week of adaptation, healthy rats with a weight of 220-225 g were selected for the test. Five rats per each group were fasted for 18 hours with drinking water freely available and diclofenac was orally administered at a dosage of 40 mg/kg and, at the same time, the test drug, or momordica saponin I, was orally administered at a dosage of 20 mg/kg and the control drug Mucosta was orally administered at a dosage of 100 mg/kg. 4 hours later, the rats were anesthetized with ether and the stomach was taken out in order to evaluate the drug's effect of treating gastritis. […] The damage of the stomach was classified into flare, congestion, hemorrhage, inflammation and edema. The severity of the damage was evaluated with points ranging from 0 to 3 (The higher the point, the severer the damage).

Sprague-Dawley rats = assay: Acute toxicity test for oral administration of momordica saponin I in rats (Example 8); type: in vivo; details: rat
Method: Acute toxicity test was performed as follows using 6-week-old specific pathogen free (SPF) Sprague-Dawley rats
To two rats per each group, the momordica saponin I isolated in Preparative Example 5 was orally administered once at a dosage of 400 mg/kg. Survival, clinical manifestations and body weight change were observed and hematological and serum biochemical analysis was performed. Autopsy was performed to observe abnormalities in abdominal and thoracic organs.

[3] = test system: damage of gastric mucosa induced by alcohol; assay: Protective effect against stomach damage induced by alcohol (momordica saponin I, Example 2); type: in vivo, Sprague-Dawley rats; details: rat, momordica saponin I 20 mg/kg, Mucosta 100 mg/kg, 30 minutes before 1.5 mL 100% ethanol oral, observed 3 hours later; for gastric mucosa damage index ± standard deviation: Bleeding / gastric mucosa damage index ± standard deviation: Edema / gastric mucosa damage index ± standard deviation: Erosion / gastric mucosa damage index ± standard deviation: Flare / gastric mucosa damage index ± standard deviation: Hyperemia: points 0 to 3
Method: A rat model test was performed using 100% ethanol as stomach damage inducing factor to evaluate the protective effect of momordica saponin I for gastric mucosa. The momordica saponin I isolated in Preparative Example 5 was dissolved in 0.5% aqueous carboxymethyl cellulose solution to 2 mg/mL and was used as a test drug. Mucosta (rebamipide, Korea Otsuka Pharmaceuticals) dissolved in 0.5% aqueous carboxymethyl cellulose solution to 10 mg/mL was used as control drug.
(§2) Seven-week-old specific pathogen free (SPF) male Sprague-Dawley rats were purchased from Charles River. After 1 week of adaptation, healthy rats with a weight of 220-225 g were selected for the test. Five rats per each group were fasted for 18 hours with drinking water freely available. Momordica saponin I were administered at a dosage of 20 mg/kg and the control drug Mucosta were administered at a dosage of 100 mg/kg. After 30 minutes, 1.5 mL of 100% ethanol was orally administered. 3 hours later, the rats were anesthetized with ether and the stomach was taken out in order to evaluate the drug's effect of preventing the stomach damage. […] The damage of the stomach was classified into flare, congestion, hemorrhage, inflammation and edema. The severity of the damage was evaluated with points ranging from 0 to 3 (the higher the point, the severer the damage.).

[4] = test system: secretion of gastric acid; assay: Gastric acid secretion inhibition test in rats (Example 6); type: in vivo, Sprague-Dawley rats; details: 1 hour later, gastric juice diluted 10 times with distilled water
Method: Momordica saponin I was orally administered to Sprague-Dawley rats and the acidity in the stomach was measured in order to evaluate the effect of momordica saponin I on the secretion of gastric acid. The momordica saponin I isolated in Preparative Example 4 was dissolved in 0.5% aqueous carboxymethyl cellulose solution to concentrations of 0.5, 1.5 and 4.5 mg/mL. 7-week-old specific pathogen free (SPF) male Sprague-Dawley rats were purchased from Charles River. After 1 week of adaptation, healthy rats with a weight of 220-225 g were selected for the test. Two rats per each group were fasted for 18 hours with drinking water freely available and momordica saponin I were administered at dosages of 5, 15 and 45 mg/kg. 1 hour later, the rats were anesthetized with ether. 0.5 mL of the gastric juice taken from the stomach was diluted 10 times with distilled water to obtain a 5 mL sample. The pH of the diluted gastric juice was measured with a pH meter.

[5] = test system: stomach damage induced by diclofenac; assay: Protective effect against stomach damage induced by diclofenac, simultaneous abdominal administration (Example 4); type: in vivo, Sprague-Dawley rats; details: rat, diclofenac 40 mg/kg oral and at the same time drugs 100 mg/kg abdominally, observed 6 hours later
Method: Differently from Example 3, diclofenac and the test drug were administered simultaneously and the damage of gastric mucosa was observed 6 hours later. In order to prevent the direct interaction between diclofenac and the test drug, the test drug was administered abdominally. Similar to that in Example 3, diclofenac and the test drug were dissolved in 0.5% aqueous carboxymethyl cellulose solution to 10 mg/mL.
as §1, with “or the Momordicae semen extract,” for “or momordica saponin I, was orally administered at a dosage of 20 mg/kg”, “control drugs Stillen and” for “control drug”, “Mucosta were abdominally” for “Mucosta was orally”, “mg/kg. 6” for “mg/kg. 4”, “to 3.” for “to 3 (The higher the point, the severer the damage).”

[6] = test system: damage of gastric mucosa induced by alcohol; assay: Protective effect against stomach damage induced by alcohol (Momordicae semen extract, Example 1); type: in vivo, Sprague-Dawley rats; details: rat, drugs 100 mg/kg 1 hour before 1.5 mL 100% ethanol oral, stomach observed 6 hours later
Method: A rat model test was performed using 100% ethanol as stomach damage inducing factor to evaluate the protective effect of the Momordicae semen extract for gastric mucosa. The Momordicae semen extract of Preparative Example 1 was dissolved in 0.5% aqueous carboxymethyl cellulose solution to 10 mg/mL and was used as a test drug. Stillen (artemisia extract, Dong-A Pharmaceutical) and Mucosta (rebamipide, Korea Otsuka Pharmaceuticals) dissolved in 0.5% aqueous carboxymethyl cellulose solution to 10 mg/mL were used as control drugs.
as §2, with “available. The Momordicae semen extract” for “available. Momordica saponin I were administered at a dosage of 20 mg/kg”, “control drugs Stillen and” for “control drug”, “After 1 hour,” for “After 30 minutes,”, “administered. 6” for “administered. 3”, “was categorized” for “was classified”, “to 3.” for “to 3 (the higher the point, the severer the damage.).”

[7] = test system: stomach damage induced by diclofenac; assay: Healing effect on stomach damage induced by diclofenac (Example 3); type: in vivo, Sprague-Dawley rats; details: rat, diclofenac 40 mg/kg oral, drugs 100 mg/kg 6 hours after, observed 18 hours later
Method: A rat model test was performed using diclofenac, a representative non-steroidal anti-inflammatory drug (NSAID), as stomach damage inducing factor to evaluate the effect of the Momordicae semen extract of Example 1 for treating gastritis. The Momordicae semen extract was dissolved in 0.5% aqueous carboxymethyl cellulose solution to 10 mg/mL and was used as a test drug. Stillen (artemisia extract, Dong-A Pharmaceutical) and Mucosta (rebamipide, Korea Otsuka Pharmaceuticals) dissolved in 0.5% aqueous carboxymethyl cellulose solution to 10 mg/mL were used as control drugs.
as §1, with “40 mg/kg. After 6 hours of stomach damage inducement,” for “40 mg/kg and, at”, “the Momordicae semen extract” for “the same time, the test drug, or momordica saponin I, was orally administered at a dosage of 20 mg/kg”, “control drugs Stillen and” for “control drug”, “Mucosta were” for “Mucosta was orally”, “mg/kg. 18” for “mg/kg. 4”, “to 3.” for “to 3 (The higher the point, the severer the damage).”

Row | Compound | gastric mucosa damage index ± standard deviation: Erosion [1] | gastric mucosa damage index ± standard deviation: Total [2] | gastric mucosa damage index ± standard deviation: Bleeding [2] | gastric mucosa damage index ± standard deviation: Edema [2] | gastric mucosa damage index ± standard deviation: Flare [2] | gastric mucosa damage index ± standard deviation: Hyperemia [2] | gastric mucosa damage index ± standard deviation: Total [3] | gastric mucosa damage index ± standard deviation: Bleeding [3] | gastric mucosa damage index ± standard deviation: Edema [3] | gastric mucosa damage index ± standard deviation: Erosion [3] | gastric mucosa damage index ± standard deviation: Flare [3] | gastric mucosa damage index ± standard deviation: Hyperemia [3] | further results
1 | CC1OC(OC2C(O)C(C(=O)O)OC(OC3CCC4(C)C(CCC5(C)C4CC=C4C6CC(C)(C)CCC6(C(=O)OC6OC(C)C(O)C(O)C6OC6OC(C)C(OC7OCC(O)C(O)C7O)C(OC7OC(CO)C(O)C(OC8OCC(O)C(O)C8O)C7O)C6O)CCC45C)C3(C)C=O)C2OC2OC(CO)C(O)C(O)C2O)C(O)C(O)C1O [Momordica saponin I, 3-O-β-D-galactopyranosyl(1->2)-[α-L-rhamnopyranosyl(1->3)]-β-D-glucuronopyranosido-28-O-β-D-xylopyranosyl(1->3)-β-D-glucopyranosyl(1->3)-[β-D-xylopyranosyl(1->4)]-α-L-rhamnopyranosyl(1->2)-β-D-fucopyranosylgypsogenin] | 1.3 ± 0.3 | 5.2 ± 1.2 | 0.7 ± 0.2 | 1 ± 0.2 | 1.3 ± 0.2 | 0.9 ± 0.3 | 4.4 ± 1.1 | 0.9 ± 0.2 | 1 ± 0.3 | 0.5 ± 0.1 | 1.1 ± 0.2 | 0.9 ± 0.3 | clinical manifestation or death (Sprague-Dawley rats; once at a dosage of 400 mg/kg): no noticeable clinical manifestation or death; toxicity in body weight change, hematological and serum biochemical analysis and autopsy (Sprague-Dawley rats; once at a dosage of 400 mg/kg): no toxicity was found; minimum oral administration lethal dose (LD50) (Sprague-Dawley rats; single administration): ≥ 400 mg/kg; Acidity in the stomach of rats (pH ± standard deviation) ([4]; 5 mg/kg oral): 3.3 ± 0.1 pH; Acidity in the stomach of rats (pH ± standard deviation) ([4]; 15 mg/kg oral): 4.3 ± 0.8 pH; Acidity in the stomach of rats (pH ± standard deviation) ([4]; 45 mg/kg oral): 5.2 ± 0.6 pH
2 | O=C(NC(Cc1cc(=O)[nH]c2ccccc12)C(=O)O)c1ccc(Cl)cc1 (stereo not drawn) [Mucosta, rebamipide] | 2.2 ± 0.4 | 8.5 ± 1.5 | 1.5 ± 0.3 | 1.2 ± 0.1 | 2.3 ± 0.3 | 1.3 ± 0.4 | 6.1 ± 1.2 | 1.4 ± 0.2 | 1.2 ± 0.3 | 0.9 ± 0.3 | 1.2 ± 0.2 | 1.4 ± 0.2 | gastric mucosa damage index: Total [5]: 9.8 ± 1.2; gastric mucosa damage index: Bleeding ([5]; points 0 to 3): 1.4 ± 0.5; gastric mucosa damage index: Edema ([5]; points 0 to 3): 1.2 ± 0.2; gastric mucosa damage index: Erosion ([5]; points 0 to 3): 2.4 ± 0.4; gastric mucosa damage index: Flare ([5]; points 0 to 3): 2.6 ± 0.2; gastric mucosa damage index: Hyperemia ([5]; points 0 to 3): 2.2 ± 0.4; gastric mucosa damage index: Total [6]: 8.1 ± 0.8; gastric mucosa damage index: Bleeding ([6]; points 0 to 3): 1.5 ± 0.2; gastric mucosa damage index: Edema ([6]; points 0 to 3): 1.3 ± 0.2; gastric mucosa damage index: Erosion ([6]; points 0 to 3): 1.8 ± 0.2; gastric mucosa damage index: Flare ([6]; points 0 to 3): 1.3 ± 0.2; gastric mucosa damage index: Hyperemia ([6]; points 0 to 3): 1.3 ± 0.4; gastric mucosa damage index: Total [7]: 7.4 ± 0.7; gastric mucosa damage index: Bleeding ([7]; points 0 to 3): 1.2 ± 0.2; gastric mucosa damage index: Edema ([7]; points 0 to 3): 2.2 ± 0.2; gastric mucosa damage index: Erosion ([7]; points 0 to 3): 2.4 ± 0.2; gastric mucosa damage index: Flare ([7]; points 0 to 3): 0.8 ± 0.4; gastric mucosa damage index: Hyperemia ([7]; points 0 to 3): 0.8 ± 0.4
